Reference: patent US7285528B2, “Agonists and antagonists of gonadotropin-releasing hormone-2, and use thereof” (priority 2002, dated 2007)
Where a SMILES comes first, the peptide text is derived from it. [ ]: non-standard residue; d: D form. pGlu = O=C1CC[C@@H](C(=O)O)N1

Tests used:
bfGnRHR-3 [1] = assay: Inositol phosphate (IP) production, GH3 cells expressing bfGnRHR-3; type: cell-based, bullfrog; settings: log of EC50 (negative values), concentration inducing half-maximal stimulation, 30 min
From the text: (§1) The GnRH receptor, a membrane protein connected with the G protein, activates the G protein when activated by a ligand, and the activated G protein activates phospholipase C and thereby the synthesis of inositol phosphate (IP), which is the second transmitter in cells, is increased. Based on this principle, the activity of a receptor can be investigated by measuring the amount of IP within cells. GH3 cell lines were obtained from the Cell Line Bank at the Cancer Research Center, Seoul National University College of Medicine, located in Seoul, Republic of Korea. The GH3 cell lines were infected with retroviruses comprising genes encoding […]-2, and bfGnRHR-3 which are bullfrog GnRH receptors, and rat GnRHR, and cell lines expressing each of these receptors were obtained. The GH3 cells expressing […]-3, and rat GnRHR were cultured on 12-well plates. After 24 hours, the cells were cultured again for 24 hours in a media containing no inositol, to which H^3-myoinositol was added. […] Thereafter, they were treated with GnRH having a suitable concentration, cultured at 37° C. for another 30 minutes, and then the media was eliminated. The cells were treated with 10 mM of ice-cold formic acid to terminate the reaction, and the cell extracts were mixed with Dowex anionic exchange resins. These resins were washed with distilled water, IP was extracted with 1 M ammonium formate/0.1 M formic acid, and cpm (count per minute) was determined. The GH3 cell lines were infected with retroviruses comprising genes encoding […]-2, and bfGnRHR-3 which are bullfrog GnRH receptors, and rat GnRHR, and cell lines expressing each of these receptors were obtained. […] In all the cell lines it was observed that when they were treated with GnRH and the agonists, IP was formed in a concentration-dependent manner.

[2] = test system: luteinizing hormone and testosterone secretion; assay: GnRH-2 agonist-induced serum LH and testosterone levels in male rat (radioimmunoassay); type: in vivo; settings: 10 μg injected
Experimental: Example 3: GnRH-2 Agonist-induced serum LH and testosterone levels [D-Ala^6]GnRH-2 was dissolved in saline at a concentration of 100 μg/ml, and then 10 μg of [D-Ala^6]GnRH-2 was injected into the cervix of a male rat (Sprague Dawley rat having a weight of approximately 100 g). 1, 2, 4, and 8 hours after the injection, serum was obtained from the rat. The concentration of luteinizing hormone and testosterone present in the serum was measured by radioimmunoassay.

Primate GnRH-2 receptor = assay: c-fos-luc luciferase activation by agonists, CV-1 cells expressing Primate GnRH-2 receptor; type: cell-based, Primates; settings: luciferase activation; for Log EC50: log of EC50 (negative values); for Log EC50 / Emax (fold-induction): average of three independent experiments; for Ratio of EC50 values based on EC50 value of GnRH-2: GnRH-2 = 1
Experimental: Complimentary DNA (cDNA) for a Primate GnRH-2 receptor was obtained from a CV-1 cell genome. […] Plasmids having Primate GnRH-2 receptors where transfected into CV-1 cells. To assay the activity of the receptor, c-fos-luc where a luciferase gene is fused with a c-fos promoter was co-transfected as a probe gene. After 48 hours from transfection, the cells were treated with GnRH-2 agonists and then the activity of luciferase was assayed (Seong et al., Endocrinology vol 144 2003, 454-466). […] Of the GnRH-2 receptors, [[…]]GnRH-2 performed excellently, showing effects about 3 times that of a wild-type ligand, GnRH-2. […] When analogs where the 5th, 7th, and 8th amino acids of [[…]]GnRH-2 are substituted were used, it was observed that their effects were weaker than [[…]]GnRH-2, and therefore it can be seen that it is important to maintain His, Trp, and Tyr that are found at the 5th, 7th, and 8th positions of GnRH-2 as they are (FIG. 3b). Log EC50 values and Emax values of GnRH-2 agonists are average values of experiments that were conducted independently three times. Ratio^a represents the ratio of EC50 values of other GnRH analogs based on EC50 values of GnRH-2.

bfGnRHR-3 [3] = assay: Ligand-receptor binding assay, I125-GnRH-2 competition, membranes of GH3 cells expressing bfGnRHR-3; set-up: species or system bullfrog; settings: log of IC50 (negative values); competition with I125-GnRH-2, 4° C., 16 hours
Experimental: To determine the binding affinity between GnRH and GnRH receptors, GnRH-2 was radiolabeled with I^125. The GH3 cells expressing bfGnRHR-1, bfGnRHR-2, bfGnRHR-3, and rat GnRHR constructed in Example 2-3 above were cultured on 100-mm dishes. After 48 hours, the cells were homogenized to obtain cellular membranes, which were then dissolved in binding buffer (40 mM Tris, pH 7.4, 2 mM MgCl2). 20 μg of membrane proteins were reacted with I^125-GnRH-2 at 4° C. for 16 hours. […] After the reaction was completed, 1^125-GnRH-2 bound to the receptors was filtered using a Brandel harvester, and cpm was measured using a γ-counter.
The GH3 cells expressing bfGnRHR-3 obtained from Example 6-1 above were treated with l^125GnRH-2 and GnRH-2 agonists and antagonists at various concentrations to determine the binding affinity of GnRH-2 agonists and antagonists toward the receptors.

rat GnRHR = biological target: T1, rat GnRHR (Rattus norvegicus, UniProt P30969); assay: Inositol phosphate (IP) production, GH3 cells expressing rat GnRHR; type: cell-based; settings: for sensitivity compared with GnRH-1: rat GnRHR
T1 construct: expressed in transfected cells; host or cells: GH3 cells, retrovirus-mediated infection
T1 sequence (P30969 1-327): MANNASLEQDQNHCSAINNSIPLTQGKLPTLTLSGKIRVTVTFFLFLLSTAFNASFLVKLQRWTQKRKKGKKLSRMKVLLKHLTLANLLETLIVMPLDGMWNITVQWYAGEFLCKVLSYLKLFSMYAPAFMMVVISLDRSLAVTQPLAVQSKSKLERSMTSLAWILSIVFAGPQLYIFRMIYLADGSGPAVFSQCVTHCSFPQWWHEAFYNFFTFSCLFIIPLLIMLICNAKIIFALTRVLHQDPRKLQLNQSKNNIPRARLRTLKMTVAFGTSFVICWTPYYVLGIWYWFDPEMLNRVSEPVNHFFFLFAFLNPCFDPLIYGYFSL
From the text: The GnRH receptor, a membrane protein connected with the G protein, activates the G protein when activated by a ligand, and the activated G protein activates phospholipase C and thereby the synthesis of inositol phosphate (IP), which is the second transmitter in cells, is increased. Based on this principle, the activity of a receptor can be investigated by measuring the amount of IP within cells. GH3 cell lines were obtained from the Cell Line Bank at the Cancer Research Center, Seoul National University College of Medicine, located in Seoul, Republic of Korea. The GH3 cell lines were infected with retroviruses comprising genes encoding […]-2, and bfGnRHR-3 which are bullfrog GnRH receptors, and rat GnRHR, and cell lines expressing each of these receptors were obtained. The GH3 cells expressing […]-3, and rat GnRHR were cultured on 12-well plates. After 24 hours, the cells were cultured again for 24 hours in a media containing no inositol, to which H^3-myoinositol was added. […] Thereafter, they were treated with GnRH having a suitable concentration, cultured at 37° C. for another 30 minutes, and then the media was eliminated. The cells were treated with 10 mM of ice-cold formic acid to terminate the reaction, and the cell extracts were mixed with Dowex anionic exchange resins. These resins were washed with distilled water, IP was extracted with 1 M ammonium formate/0.1 M formic acid, and cpm (count per minute) was determined. The GH3 cell lines were infected with retroviruses comprising genes encoding […]-2, and bfGnRHR-3 which are bullfrog GnRH receptors, and rat GnRHR, and cell lines expressing each of these receptors were obtained.

bfGnRHR-1 = assay: Inositol phosphate (IP) production, GH3 cells expressing bfGnRHR-1; type: cell-based, bullfrog; settings: for Log EC50: log of EC50 (negative values), concentration inducing half-maximal stimulation, 30 min
From the text: as §1

bfGnRHR-2 = assay: Inositol phosphate (IP) production, GH3 cells expressing bfGnRHR-2; type: cell-based, bullfrog; settings: log of EC50 (negative values), concentration inducing half-maximal stimulation, 30 min
From the text: as §1

TSU-Pri cells = assay: Binding of radiolabeled GnRH to TSU-Pri prostate cancer cells and competition; set-up: species or system human; settings: for reduction of radiolabeled GnRH-2 binding to TSU-Pri cells by unradiolabeled competitor: unradiolabeled peptide as competitor
Experimental: The radiolabeled GnRH and the cells were cultured at room temperature for 6 hours, and then washed with PBS (phosphate-buffered saline) several times to eliminate the unbound GnRH. Thereafter, the cells were isolated and radioactivity from the cells was measured using a γ-counter.

[4] = cells expressing rat GnRH receptor

C[C@@H](NC(=O)[C@H](Cc1c[nH]cn1)NC(=O)[C@H](CO)NC(=O)[C@H](Cc1c[nH]c2ccccc12)NC(=O)[C@H](Cc1c[nH]cn1)NC(=O)[C@@H]1CCC(=O)N1)C(=O)N[C@@H](Cc1c[nH]c2ccccc12)C(=O)N[C@@H](Cc1ccc(O)cc1)C(=O)N1CCC[C@H]1C(=O)NCC(N)=O [[D-Ala^6]GnRH-2, p-Glu-His-Trp-Ser-His-D-Ala-Trp-Tyr-Pro-GlyNH2] ([pGlu]HWSH[dA]WYPG-NH2)
Log EC50 (bfGnRHR-3 [1]): −9.89 ± 0.10 | serum luteinizing hormone (LH) ([2]; male Sprague Dawley rat about 100 g, serum 1, 2, 4, 8 hours): an increase of luteinizing hormone (LH) was observed in only one hour | time of serum testosterone peak after injection ([2]; male rat): 4 h | serum testosterone ([2]; male rat, compared with before the injection): significantly high value even after 8 hours | Log EC50 (Primate GnRH-2 receptor): −8.81 ± 0.12 | Ratio of EC50 values based on EC50 value of GnRH-2 (Primate GnRH-2 receptor): 0.38 | Emax (fold-induction) (Primate GnRH-2 receptor): 11.84 ± 0.47 fold-induction | Binding affinity (log IC50 value) (bfGnRHR-3 [3]): −9.83 ± 0.14 | fold higher sensitivity than GnRH-2 (rat GnRHR; [4]): 5 fold | fold lower sensitivity than GnRH-1 (rat GnRHR; [4]): 3.5 fold | sensitivity compared with GnRH-1 (rat GnRHR): a sensitivity lower than 10-fold | fold lower activating concentration than GnRH-2 (bfGnRHR-1): ~8 fold | Log EC50 (bfGnRHR-1): −9.91 ± 0.13 | Log EC50 (bfGnRHR-2): −9.91 ± 0.19 | reduction of radiolabeled GnRH-2 binding to TSU-Pri cells by unradiolabeled competitor (TSU-Pri cells): reduced in a concentration-dependent manner

NC(=O)CNC(=O)[C@@H]1CCCN1C(=O)[C@H](Cc1ccc(O)cc1)NC(=O)[C@H](Cc1c[nH]c2ccccc12)NC(=O)[C@@H](Cc1c[nH]c2ccccc12)NC(=O)[C@H](Cc1c[nH]cn1)NC(=O)[C@H](CO)NC(=O)[C@H](Cc1c[nH]c2ccccc12)NC(=O)[C@H](Cc1c[nH]cn1)NC(=O)[C@@H]1CCC(=O)N1 [[D-Trp^6]GnRH-2] ([pGlu]HWSH[dW]WYPG-NH2)
Log EC50 (bfGnRHR-3 [1]): −9.22 ± 0.11 | Log EC50 (Primate GnRH-2 receptor): −8.31 ± 0.09 | fold lower effect than GnRH-2 (Primate GnRH-2 receptor): ~1.2 fold | Ratio of EC50 values based on EC50 value of GnRH-2 (Primate GnRH-2 receptor): 1.20 | Emax (fold-induction) (Primate GnRH-2 receptor): 11.20 ± 0.32 fold-induction | Binding affinity (log IC50 value) (bfGnRHR-3 [3]): −8.10 ± 0.11 | Log EC50 (bfGnRHR-1): −9.40 ± 0.12 | Log EC50 (bfGnRHR-2): −9.21 ± 0.13

NC(=O)CNC(=O)[C@@H]1CCCN1C(=O)[C@H](Cc1ccc(O)cc1)NC(=O)[C@H](Cc1c[nH]c2ccccc12)NC(=O)CNC(=O)[C@H](Cc1c[nH]cn1)NC(=O)[C@H](CO)NC(=O)[C@H](Cc1c[nH]c2ccccc12)NC(=O)[C@H](Cc1c[nH]cn1)NC(=O)[C@@H]1CCC(=O)N1 [GnRH-2] ([pGlu]HWSHGWYPG-NH2)
Log EC50 (bfGnRHR-3 [1]): −9.51 ± 0.10 | Log EC50 (Primate GnRH-2 receptor): −8.39 ± 0.10 | Ratio of EC50 values based on EC50 value of GnRH-2 (Primate GnRH-2 receptor): 1 | Emax (fold-induction) (Primate GnRH-2 receptor): 11.74 ± 0.31 fold-induction | Binding affinity (log IC50 value) (bfGnRHR-3 [3]): −8.63 ± 0.14 | sensitivity compared with GnRH-1 (rat GnRHR): a sensitivity lower than 10-fold | Log EC50 (bfGnRHR-1): −9.41 ± 0.13 | Log EC50 (bfGnRHR-2): −8.98 ± 0.14 | binding of radiolabeled ligand to TSU-Pri cells (TSU-Pri cells; I125-radiolabeled peptide, room temperature, 6 hours): binding with cells was observed | reduction of radiolabeled GnRH-2 binding to TSU-Pri cells by unradiolabeled competitor (TSU-Pri cells): the binding was reduced
